According to patent US10543212B2, “Substituted amines for treating cardiac diseases” (Cardurion Pharmaceuticals, LLC, priority 2017, dated 2020):
Where a name gives a salt, the structure may show the parent alone.

What follows are compounds tested against T1, Human full-length CaMKIIδ (Homo sapiens, UniProt Q13557) (assay: Human CaMKII enzyme inhibition assay (radiometric kinase assay)). Settings: 3 μM compound; 500 nM ATP; 0.5 nM CaMKIIδ; read-out: CaMKIIδ inhibitory activity (%) at 3 μM.
T1 construct: Human full-length CaMKIIδ (Cat #02-111) was obtained from Carna Biosciences; GST; purchased Carna Biosciences 02-111
Type: biochemical
Experimental: In Vitro CaMKIIδ Inhibitory Activity was Evaluated by an Enzyme Assay.
Human CaMKII Enzyme Inhibition Assay
Kinase assay for CaMKIIs was performed using the radiometric assay. Human full-length CaMKIIδ (Cat #02-111) was obtained from Carna Biosciences (Kobe, Japan).
Enzyme reactions were performed in 25 mM HEPES, pH 7.5, with 5 mM magnesium chloride, 1 mM calcium chloride, 10 μg/mL Calmodulin, 2 mM DTT, 0.01% Tween20 and 500 nM ATP (0.2 μCi/well of [γ-33P] ATP) containing 0.5 nM CaMKIIδ and 0.1 μM autophosphorylation peptide (KKALRRQETVDAL)(Toray Research Center).
After incubating the enzyme, peptide, and compounds for 5 min, kinase reactions were initiated by adding ATP, followed by incubation for 60 min at room temperature in a total volume of 50 μL. The reactions were terminated by the addition of 10% trichloroacetic acid (final concentration). The [γ-33P]-phosphorylated proteins were filtered in a Harvest Plate (Merck Millipore) with a Cell Harvester (PerkinElmer) and then free [γ-33P] ATP was washed out with 3% phosphoric acid. The plates were dried, followed by the addition of 40 μl of MicroScintO (PerkinElmer). The radioactivity was counted by a TopCount scintillation counter (PerkinElmer). The signals of the reaction without enzyme were defined as 100% inhibitory activity and those of the reaction without inhibitors as 0% inhibitory activity. In vitro CaMKIIδ inhibitory activity was evaluated by % inhibitory activity of 3 μM compound concentration.

Row | SMILES | inhibition at 3 µM [%]
1 | C[C@@H](Cc1ccn[nH]1)Oc1cc(-c2cnc(Nc3cnn(C)c3)nc2)ccc1C#N [Example 412, 4-(2-((1-methyl-1H-pyrazol-4-yl)amino)pyrimidin-5-yl)-2-(((2S)-1-(1H-pyrazol-5-yl)propan-2-yl)oxy)benzonitrile] | 96
2 | C[C@@H](Cn1cncn1)Oc1cc(-c2cnc(Nc3cnn(C4CC4)c3)nc2)ccc1C#N [Example 361, 4-(2-((1-cyclopropyl-1H-pyrazol-4-yl)amino)pyrimidin-5-yl)-2-(((2S)-1-(1H-1,2,4-triazol-1-yl)propan-2-yl)oxy)benzonitrile] | 98
3 | COc1nn(C)cc1Nc1ncc(-c2ccc(C#N)c(O[C@@H](C)Cn3cncn3)c2)cn1 [Example 375, 4-(2-((3-methoxy-1-methyl-1H-pyrazol-4-yl)amino)pyrimidin-5-yl)-2-(((2S)-1-(1H-1,2,4-triazol-1-yl)propan-2-yl)oxy)benzonitrile] | 97
4 | COc1cc(CNC2CC2)ccc1Nc1ncc(-c2ccc(C#N)c(O[C@@H](C)Cn3cnnn3)c2)cn1 [Example 52, 4-(2-((4-((cyclopropylami-no)methyl)-2-methoxy-phenyl)amino)pyrimidin-5-yl)-2-(((2S)-1-(1H-tetrazol-1-yl)propan-2-yl)oxy)benzonitrile hydrochloride] | 100
5 | COCCN1CCC(c2ccc(Nc3ncc(-c4ccc(C#N)c(O[C@@H](C)Cn5cnnn5)c4)cn3)c(OC)c2)CC1 [Example 85, 4-(2-((2-methoxy-4-(1-(2-methoxyethyl)piperidin-4-yl)phenyl)amino)pyrimidin-5-yl)-2-(((2S)-1-(1H-tetrazol-1-yl)propan-2-yl)oxy)benzonitrile] | 98
6 | Cc1nn(C(C)C)cc1Nc1ncc(-c2ccc(C#N)c(O[C@@H](C)Cn3cncn3)c2)cn1 [Example 358, 4-(2-((1-isopropyl-3-methyl-1H-pyrazol-4-yl)amino)pyrimidin-5-yl)-2-(((2S)-1-(1H-1,2,4-triazol-1-yl)propan-2-yl)oxy)benzonitrile] | 93
7 | C[C@@H](Cn1cncn1)Oc1cc(-c2cnc(Nc3cnn(CC(F)(F)F)c3)nc2)ccc1C#N [Example 362, 2-(((2S)-1-(1H-1,2,4-triazol-1-yl)propan-2-yl)oxy)-4-(2-((1-(2,2,2-trifluoroethyl)-1H-pyrazol-4-yl)amino)pyrimidin-5-yl)benzonitrile] | 97
8 | COc1cc(C2CCN(C3COC3)CC2)ccc1Nc1ncc(-c2ccc(Cl)c(O[C@@H](C)Cn3cnnn3)c2)cn1 [Example 206, 5-(4-chloro-3-(((2S)-1-(1H-tetrazol-1-yl)propan-2-yl)oxy)phenyl)-N-(2-methoxy-4-(1-(oxetan-3-yl)piperidin-4-yl)phenyl)pyrimidin-2-amine] | 99
9 | COc1cc(N2CCC(N3C[C@H]4CC[C@@H](C3)O4)CC2)ccc1Nc1ncc(-c2ccc(Cl)c(O[C@@H](C)Cn3cnnn3)c2)cn1 [Example 213, 5-(4-chloro-3-(((2S)-1-(1H-tetrazol-1-yl)propan-2-yl)oxy)phenyl)-N-(2-methoxy-4-(4-((1R,5S)-8-oxa-3-azabicyclo[3.2.1]oct-3-yl)piperidin-1-yl)phenyl)pyrimidin-2-amine] | 100
10 | C[C@@H](Cn1ncnn1)Oc1cc(-c2cnc(Nc3cnn(C)c3)nc2)ccc1C#N [Example 411, 4-(2-((1-methyl-1H-pyrazol-4-yl)amino)pyrimidin-5-yl)-2-(((2S)-1-(2H-tetrazol-2-yl)propan-2-yl)oxy)benzonitrile] | 93
11 | COc1cc(N2CCC(N3CCOCC3)CC2)ccc1Nc1ncc(-c2ccc(Cl)c(O[C@@H](C)Cn3cnnn3)c2)cn1 [Example 60, 5-(4-chloro-3-(((2S)-1-(1H-tetrazol-1-yl)propan-2-yl)oxy)phenyl)-N-(2-methoxy-4-(4-(morpholin-4-yl)piperidin-1-yl)phenyl)pyrimidin-2-amine] | 99
12 | C[C@@H](Cn1cncn1)Oc1cc(-c2cnc(Nc3cn[nH]c3)nc2)ccc1C#N [Example 379, 4-(2-(1H-pyrazol-4-ylamino)pyrimidin-5-yl)-2-(((2S)-1-(1H-1,2,4-triazol-1-yl)propan-2-yl)oxy)benzonitrile] | 98
13 | COc1cc(N2CCC(N3CCOCC3)CC2)ccc1Nc1ncc(-c2ccc(C#N)c(O[C@@H](C)Cn3cnnc3)c2)cn1 [Example 17, 4-(2-((2-methoxy-4-(4-(morpholin-4-yl)piperidin-1-yl)phenyl)amino)pyrimidin-5-yl)-2-(((2S)-1-(4H-1,2,4-triazol-4-yl)propan-2-yl)oxy)benzonitrile] | 98
14 | COc1ccc(N2CCC(N3CCOCC3)CC2)cc1Nc1ncc(-c2ccc(Cl)c(O[C@@H](C)Cn3cnnn3)c2)cn1 [Example 214, 5-(4-chloro-3-(((2S)-1-(1H-tetrazol-1-yl)propan-2-yl)oxy)phenyl)-N-(2-methoxy-5-(4-(morpholin-4-yl)piperidin-1-yl)phenyl)pyrimidin-2-amine] | 100
15 | COc1ccc(N2CCC(N3CCOCC3)CC2)cc1Nc1ncc(-c2ccc(C#N)c(O[C@@H](C)Cn3cnnn3)c2)cn1 [Example 202, 4-(2-((2-methoxy-5-(4-(morpholin-4-yl)piperidin-1-yl)phenyl)amino)pyrimidin-5-yl)-2-(((2S)-1-(1H-tetrazol-1-yl)propan-2-yl)oxy)benzonitrile] | 99
16 | COc1cc(C(=O)N2CCOCC2)ccc1Nc1ncc(-c2ccc(C#N)c(O[C@@H](C)Cn3cncn3)c2)cn1 [Example 72, 4-(2-((2-methoxy-4-(morpholin-4-ylcar-bonyl)phenyl)amino)pyrimidin-5-yl)-2-(((2S)-1-(1H-1,2,4-triazol-1-yl)propan-2-yl)oxy)benzonitrile] | 97
17 | COc1cc(N2CCC(N3CCNCC3)CC2)ccc1Nc1ncc(-c2ccc(C#N)c(O[C@@H](C)Cn3cnnn3)c2)cn1 [Example 34] | 99
18 | CC(C)n1cc(Nc2ncc(-c3ccc(C#N)c(O[C@@H](C)Cn4ncnn4)c3)cn2)cn1 [Example 371, 4-(2-((1-isopropyl-1H-pyrazol-4-yl)amino)pyrimidin-5-yl)-2-(((2S)-1-(2H-tetrazol-2-yl)propan-2-yl)oxy)benzonitrile] | 94
19 | C[C@@H](Cn1cnnn1)Oc1cc(-c2cnc(Nc3cn(C)nc3C(F)(F)F)nc2)ccc1C#N [Example 380, 4-(2-((1-methyl-3-(trifluoromethyl)-1H-pyrazol-4-yl)amino)pyrimidin-5-yl)-2-(((2S)-1-(1H-tetrazol-1-yl)propan-2-yl)oxy)benzonitrile] | 99
20 | COc1nc(N2CCC(N3CCOCC3)CC2)ncc1Nc1ncc(-c2ccc(C#N)c(O[C@@H](C)Cn3cnnn3)c2)cn1 [Example 56, 4-(2-((4-methoxy-2-(4-(morpholin-4-yl)piperidin-1-yl)pyrimidin-5-yl)amino)pyrimidin-5-yl)-2-(((2S)-1-(1H-tetrazol-1-yl)propan-2-yl)oxy)benzonitrile] | 98
21 | COc1cc(C(=O)N2CCN(C)CC2)ccc1Nc1ncc(-c2ccc(C#N)c(O[C@@H](C)Cn3cncn3)c2)cn1 [Example 73, 4-(2-((2-methoxy-4-((4-methylpiperazin-1-yl)car-bonyl)phenyl)amino)pyrimidin-5-yl)-2-(((2S)-1-(1H-1,2,4-triazol-1-yl)propan-2-yl)oxy)benzonitrile] | 97

What follows are compounds tested against T2, Full-length, GST-tagged, human CaMKIIδ (Homo sapiens, UniProt Q13557) (assay: CaMKIIδ binding assay (TR-FRET with BODIPY-labeled probe ligand)). Settings: Table 2; CaMKIIδ binding assay, activity given as class A/B/C.
T2 construct: Full-Length, Glutathione-S-Transferase(GST)-Tagged, Human CaMKIIδ was purchased from Carna Biosciences; purchased Carna Biosciences 02-111
How it was run: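 Compounds were tested as 4-fold, eight-point series for 1 hr at room temperature, and IC50 was obtained by logistic fitting against a 3 μM parent-compound control. Signal came from displacement of a 300 nM BODIPY ligand from 0.5 nM GST-CaMKIIδ, detected via Tb-anti-GST in calmodulin/Ca2+ (pH 7.6).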

T2 sequence (Q13557 1-478 isoform Q13557-12): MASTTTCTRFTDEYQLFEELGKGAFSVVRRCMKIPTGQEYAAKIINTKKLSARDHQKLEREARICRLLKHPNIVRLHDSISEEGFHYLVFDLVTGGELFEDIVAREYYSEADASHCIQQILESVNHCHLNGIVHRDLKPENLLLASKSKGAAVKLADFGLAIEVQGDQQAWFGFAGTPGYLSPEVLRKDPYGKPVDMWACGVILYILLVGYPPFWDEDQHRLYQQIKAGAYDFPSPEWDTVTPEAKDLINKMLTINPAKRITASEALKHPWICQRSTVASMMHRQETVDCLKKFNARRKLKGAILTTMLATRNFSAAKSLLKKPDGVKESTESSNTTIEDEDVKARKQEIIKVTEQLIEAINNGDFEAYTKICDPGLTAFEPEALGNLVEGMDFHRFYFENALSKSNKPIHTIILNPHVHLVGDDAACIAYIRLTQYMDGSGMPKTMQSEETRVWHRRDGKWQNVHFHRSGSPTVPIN

Row | SMILES | IC50 [nM]
22 | C[C@@H](Cn1cnnn1)Oc1cc(-c2cnc(Nc3cn([C@H]4CC[C@H](N5CCOCC5)CC4)nc3OCC(F)F)nc2)ccc1Cl [Example 806, 5-(3-(((S)-1-(1H-tetrazol-1-yl)propan-2-yl)oxy)-4-chlorophenyl)-N-(3-(2,2-difluoroethoxy)-1-(trans-4-morpholinocyclohexyl)-1H-pyrazol-4-yl)pyrimidin-2-amine] | < 10

Each compound was assayed on phosphorylation of CaMKII-specific site of phospholamban (Thr17, PLN) in the heart (assay: In vivo cardiac CaMKII inhibition (P-PLN Thr17 in rat left ventricle, Western blotting)). Settings: po; 30 mg/kg p.o., 2 hr after administration, male SD rat left ventricle, vs vehicle-treated group; read-out: Reduction rate of P-PLN.
Experimental: To evaluate potency of test compounds to inhibit cardiac CaMKII kinase in vivo, phosphorylation levels of CaMKII-specific sites of phospholamban (Thr17, PLN) were measured in the heart of rats administered with test compounds at various doses.
Test compounds were suspended in 0.5% [w/v] methylcellulose/water solution and administered (10 or 30 mg/kg) to male CD (SD) IGS rat (6-8 weeks old, n=4) by the p.o. route (5 mL/kg). At 2-4 hours after the administration, rats were sacrificed and the hearts were harvested. After washing the isolated hearts with ice-cold saline, connective tissues were removed on ice, and the isolated left ventricle were frozen into liquid nitrogen gas and stored at −80° C.
The left ventricle samples were homogenized in RIPA-buffer containing phosphatase inhibitors and protease inhibitors. Samples were analyzed by Western blotting using anti-P-PLN (Thr17, Santa Cruz Biotechnology, sc-17024-R) antibody. The band intensities were quantified using an imaging system and were normalized relative to the vehicle-treated group.

Row | SMILES | inhibition in vivo at 30 mg/kg [%]
23 | C[C@@H](Cn1cnnn1)Oc1cc(-c2cnc(Nc3cn([C@H]4CC[C@H](N5CCOCC5)CC4)nc3OCC(F)F)nc2)ccc1Cl [Example 806, 5-(3-(((S)-1-(1H-tetrazol-1-yl)propan-2-yl)oxy)-4-chlorophenyl)-N-(3-(2,2-difluoroethoxy)-1-(trans-4-morpholinocyclohexyl)-1H-pyrazol-4-yl)pyrimidin-2-amine] | > 50
